How the values were obtained:
NIH3T3 [1] = assay: Antiproliferative activity against mouse NIH3T3 cells assessed as reduction in cell viability by measuring optimal working concentration incubated for 3 days by CCK-8 assay relative to control; assay type: functional; details: time 3 day
Histone deacetylase 1 = Histone deacetylase 1 (Homo sapiens, UniProt Q13547); assay: Inhibition of human HDAC1 expressed in baculovirus expression system in Sf9 cells using RHKKAc (379 to 382 residues) fluorogenic peptide as substrate and measured after 2 hrs by fluorescence based analysis
NIH3T3 [2] = assay: Antiproliferative activity against mouse NIH3T3 cells assessed as reduction in cell viability incubated for 3 days by CCK-8 assay; assay type: functional, cell-based; details: NIH3T3, 72 h
[3] = target: T1, Protein deacetylase HDAC6 (Homo sapiens, UniProt Q9UBN7); assay: Inhibition of human HDAC6 expressed in baculovirus expression system in Sf9 cells using RHKKAc (379 to 382 residues) fluorogenic peptide as substrate and measured after 2 hrs by fluorescence based analysis
T1 sequence (Q9UBN7 whole entry): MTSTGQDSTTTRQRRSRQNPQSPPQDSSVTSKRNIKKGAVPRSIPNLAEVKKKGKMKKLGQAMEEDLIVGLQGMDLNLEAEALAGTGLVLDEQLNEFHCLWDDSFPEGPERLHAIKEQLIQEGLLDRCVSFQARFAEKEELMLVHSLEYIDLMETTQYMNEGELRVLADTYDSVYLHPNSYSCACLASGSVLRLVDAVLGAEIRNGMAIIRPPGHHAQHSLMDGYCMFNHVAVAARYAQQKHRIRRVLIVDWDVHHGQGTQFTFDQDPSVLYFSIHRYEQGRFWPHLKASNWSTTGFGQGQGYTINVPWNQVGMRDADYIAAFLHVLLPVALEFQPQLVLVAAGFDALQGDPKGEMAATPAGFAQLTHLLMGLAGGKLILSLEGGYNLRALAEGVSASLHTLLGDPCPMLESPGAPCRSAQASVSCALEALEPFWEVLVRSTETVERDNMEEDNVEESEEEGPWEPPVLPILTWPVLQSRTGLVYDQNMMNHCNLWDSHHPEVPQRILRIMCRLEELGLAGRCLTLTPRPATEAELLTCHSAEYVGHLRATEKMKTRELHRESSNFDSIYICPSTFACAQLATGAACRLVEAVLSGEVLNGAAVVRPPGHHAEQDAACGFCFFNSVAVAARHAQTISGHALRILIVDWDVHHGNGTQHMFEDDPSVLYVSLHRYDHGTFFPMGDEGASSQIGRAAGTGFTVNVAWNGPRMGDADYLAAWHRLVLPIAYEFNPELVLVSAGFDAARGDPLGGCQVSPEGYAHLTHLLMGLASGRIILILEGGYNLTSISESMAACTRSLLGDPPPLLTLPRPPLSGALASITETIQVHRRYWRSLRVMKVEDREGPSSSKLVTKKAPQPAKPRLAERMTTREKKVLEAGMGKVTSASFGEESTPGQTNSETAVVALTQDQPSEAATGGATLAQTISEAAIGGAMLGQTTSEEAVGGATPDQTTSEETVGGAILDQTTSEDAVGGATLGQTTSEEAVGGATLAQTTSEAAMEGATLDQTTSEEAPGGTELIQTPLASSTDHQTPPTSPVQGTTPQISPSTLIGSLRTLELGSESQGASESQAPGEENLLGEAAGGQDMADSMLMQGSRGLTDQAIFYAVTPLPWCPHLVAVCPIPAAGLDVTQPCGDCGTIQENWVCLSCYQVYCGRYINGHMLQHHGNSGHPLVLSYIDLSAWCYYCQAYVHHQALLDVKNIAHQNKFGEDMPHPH

Histone deacetylase 8 = target: T2, Histone deacetylase 8 (Homo sapiens, UniProt Q9BY41); assay: Inhibition of human HDAC8 expressed in baculovirus expression system in Sf9 cells using RHKAcKAc (379 to 382 residues) fluorogenic peptide as substrate and measured after 2 hrs by fluorescence based analysis
T2 sequence (Q9BY41 whole entry): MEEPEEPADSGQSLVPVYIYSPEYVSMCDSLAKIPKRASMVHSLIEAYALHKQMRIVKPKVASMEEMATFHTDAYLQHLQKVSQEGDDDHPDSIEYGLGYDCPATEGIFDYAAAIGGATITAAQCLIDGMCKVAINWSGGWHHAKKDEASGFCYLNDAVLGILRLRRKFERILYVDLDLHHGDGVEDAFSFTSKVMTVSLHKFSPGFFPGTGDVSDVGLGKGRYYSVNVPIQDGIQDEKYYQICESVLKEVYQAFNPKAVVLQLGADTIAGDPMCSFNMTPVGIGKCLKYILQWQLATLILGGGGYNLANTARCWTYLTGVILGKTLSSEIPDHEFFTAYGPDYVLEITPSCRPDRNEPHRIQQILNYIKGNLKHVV

in vitro [4] = details: human
[5] = Metabolic stability in human liver microsomes assessed as parent compound remaining at 200 uM preincubated for 5 mins followed by NADPH and measured at 60 mins by LC-MS/MS analysis
in vitro [6] = details: human; remark: listed apart in the source
in vitro [7] = details: human, Caco-2
Description: Apparent permeability across apical to basolateral side in human Caco-2 cells at 10 uM preincubated for 10mins followed by compound addition and measured after 90 mins by LC-MS/MS analysis

[8] = Antiproliferative activity against human Pulmonary fibroblast cells assessed as reduction in cell viability by measuring optimal working concentration incubated for 3 days by CCK-8 assay; assay type: functional; details: time 3 day
[9] = Antiproliferative activity against human Pulmonary fibroblast cells assessed as reduction in cell viability incubated for 3 days by CCK-8 assay; assay type: functional, cell-based; details: 72 h
Histone deacetylase 4 = Histone deacetylase 4 (Homo sapiens, UniProt P56524); assay: Inhibition of human HDAC4 expressed in baculovirus expression system in Sf9 cells using Boc-Lys(trifluoroacetyl)-AMC fluorogenic peptide as substrate and measured after 2 hrs by fluorescence based analysis
Histone deacetylase 9 = Histone deacetylase 9 (Homo sapiens, UniProt Q9UKV0); assay: Inhibition of human HDAC9 expressed in baculovirus expression system in Sf9 cells using Boc-Lys(trifluoroacetyl)-AMC fluorogenic peptide as substrate and measured after 2 hrs by fluorescence based analysis
Histone deacetylase 5 = Histone deacetylase 5 (Homo sapiens, UniProt Q9UQL6); assay: Inhibition of human HDAC5 expressed in baculovirus expression system in Sf9 cells using Boc-Lys(trifluoroacetyl)-AMC fluorogenic peptide as substrate and measured after 2 hrs by fluorescence based analysis
Histone deacetylase 3 = Histone deacetylase 3 (Homo sapiens, UniProt O15379); assay: Inhibition of human HDAC3 expressed in baculovirus expression system in Sf9 cells using RHKKAc (379 to 382 residues) fluorogenic peptide as substrate and measured after 2 hrs by fluorescence based analysis
Histone deacetylase 2 = Histone deacetylase 2 (Homo sapiens, UniProt Q92769); assay: Inhibition of human HDAC2 expressed in baculovirus expression system in Sf9 cells using RHKKAc (379 to 382 residues) fluorogenic peptide as substrate and measured after 2 hrs by fluorescence based analysis
Histone deacetylase 11 = target: T3, Histone deacetylase 11 (Homo sapiens, UniProt Q96DB2); assay: Inhibition of human HDAC11 expressed in baculovirus expression system in Sf9 cells using Boc-Lys(trifluoroacetyl)-AMC fluorogenic peptide as substrate and measured after 2 hrs by fluorescence based analysis
T3 sequence (Q96DB2 whole entry): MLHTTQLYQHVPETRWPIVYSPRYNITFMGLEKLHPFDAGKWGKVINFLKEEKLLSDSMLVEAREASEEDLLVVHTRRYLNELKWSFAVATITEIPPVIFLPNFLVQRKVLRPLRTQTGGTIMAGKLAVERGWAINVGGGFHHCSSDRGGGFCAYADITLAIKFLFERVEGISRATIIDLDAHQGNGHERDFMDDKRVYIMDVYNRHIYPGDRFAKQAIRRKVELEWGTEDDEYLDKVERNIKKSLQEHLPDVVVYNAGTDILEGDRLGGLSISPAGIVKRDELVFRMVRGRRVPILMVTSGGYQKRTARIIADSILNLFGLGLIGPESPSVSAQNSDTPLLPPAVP

Histone deacetylase 1, sequence (Q13547 whole entry, the tested form may be a part): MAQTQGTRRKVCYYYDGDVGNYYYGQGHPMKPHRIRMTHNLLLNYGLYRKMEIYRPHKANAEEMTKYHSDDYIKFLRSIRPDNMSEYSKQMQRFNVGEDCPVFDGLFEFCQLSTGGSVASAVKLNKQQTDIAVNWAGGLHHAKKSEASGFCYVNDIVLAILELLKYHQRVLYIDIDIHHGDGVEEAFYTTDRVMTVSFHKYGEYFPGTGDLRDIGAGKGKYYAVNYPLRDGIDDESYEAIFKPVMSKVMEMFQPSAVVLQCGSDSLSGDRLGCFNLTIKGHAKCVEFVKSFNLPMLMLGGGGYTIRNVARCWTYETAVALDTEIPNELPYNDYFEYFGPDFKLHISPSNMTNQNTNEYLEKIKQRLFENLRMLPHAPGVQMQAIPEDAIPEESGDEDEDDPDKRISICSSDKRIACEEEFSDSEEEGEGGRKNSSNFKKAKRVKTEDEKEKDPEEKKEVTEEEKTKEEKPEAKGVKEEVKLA
Histone deacetylase 3, sequence (O15379 whole entry, the tested form may be a part): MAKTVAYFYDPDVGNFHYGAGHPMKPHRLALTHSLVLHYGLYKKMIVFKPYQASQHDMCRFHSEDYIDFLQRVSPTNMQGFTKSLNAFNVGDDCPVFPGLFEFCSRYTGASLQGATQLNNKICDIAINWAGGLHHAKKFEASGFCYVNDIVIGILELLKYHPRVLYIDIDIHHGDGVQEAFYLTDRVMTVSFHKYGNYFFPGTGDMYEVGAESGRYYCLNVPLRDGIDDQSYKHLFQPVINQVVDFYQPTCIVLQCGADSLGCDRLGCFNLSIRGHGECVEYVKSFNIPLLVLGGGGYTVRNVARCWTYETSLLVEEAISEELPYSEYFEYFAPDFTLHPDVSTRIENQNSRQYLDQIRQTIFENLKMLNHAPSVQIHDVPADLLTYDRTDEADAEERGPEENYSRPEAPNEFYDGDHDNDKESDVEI
Histone deacetylase 2, sequence (Q92769 whole entry, the tested form may be a part): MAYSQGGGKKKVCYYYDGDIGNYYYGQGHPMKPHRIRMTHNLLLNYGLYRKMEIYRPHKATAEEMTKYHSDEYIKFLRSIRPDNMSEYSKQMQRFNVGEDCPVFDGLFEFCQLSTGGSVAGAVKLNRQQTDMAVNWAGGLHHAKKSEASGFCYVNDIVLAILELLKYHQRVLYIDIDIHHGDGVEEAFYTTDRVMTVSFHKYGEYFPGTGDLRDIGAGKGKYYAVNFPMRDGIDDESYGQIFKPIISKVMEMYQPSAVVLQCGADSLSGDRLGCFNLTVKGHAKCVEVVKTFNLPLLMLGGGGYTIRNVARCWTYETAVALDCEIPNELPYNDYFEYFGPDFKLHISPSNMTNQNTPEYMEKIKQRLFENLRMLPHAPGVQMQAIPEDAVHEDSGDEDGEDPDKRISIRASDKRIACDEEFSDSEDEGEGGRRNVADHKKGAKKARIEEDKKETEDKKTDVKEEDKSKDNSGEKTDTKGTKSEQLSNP
Histone deacetylase 4, sequence (P56524 whole entry): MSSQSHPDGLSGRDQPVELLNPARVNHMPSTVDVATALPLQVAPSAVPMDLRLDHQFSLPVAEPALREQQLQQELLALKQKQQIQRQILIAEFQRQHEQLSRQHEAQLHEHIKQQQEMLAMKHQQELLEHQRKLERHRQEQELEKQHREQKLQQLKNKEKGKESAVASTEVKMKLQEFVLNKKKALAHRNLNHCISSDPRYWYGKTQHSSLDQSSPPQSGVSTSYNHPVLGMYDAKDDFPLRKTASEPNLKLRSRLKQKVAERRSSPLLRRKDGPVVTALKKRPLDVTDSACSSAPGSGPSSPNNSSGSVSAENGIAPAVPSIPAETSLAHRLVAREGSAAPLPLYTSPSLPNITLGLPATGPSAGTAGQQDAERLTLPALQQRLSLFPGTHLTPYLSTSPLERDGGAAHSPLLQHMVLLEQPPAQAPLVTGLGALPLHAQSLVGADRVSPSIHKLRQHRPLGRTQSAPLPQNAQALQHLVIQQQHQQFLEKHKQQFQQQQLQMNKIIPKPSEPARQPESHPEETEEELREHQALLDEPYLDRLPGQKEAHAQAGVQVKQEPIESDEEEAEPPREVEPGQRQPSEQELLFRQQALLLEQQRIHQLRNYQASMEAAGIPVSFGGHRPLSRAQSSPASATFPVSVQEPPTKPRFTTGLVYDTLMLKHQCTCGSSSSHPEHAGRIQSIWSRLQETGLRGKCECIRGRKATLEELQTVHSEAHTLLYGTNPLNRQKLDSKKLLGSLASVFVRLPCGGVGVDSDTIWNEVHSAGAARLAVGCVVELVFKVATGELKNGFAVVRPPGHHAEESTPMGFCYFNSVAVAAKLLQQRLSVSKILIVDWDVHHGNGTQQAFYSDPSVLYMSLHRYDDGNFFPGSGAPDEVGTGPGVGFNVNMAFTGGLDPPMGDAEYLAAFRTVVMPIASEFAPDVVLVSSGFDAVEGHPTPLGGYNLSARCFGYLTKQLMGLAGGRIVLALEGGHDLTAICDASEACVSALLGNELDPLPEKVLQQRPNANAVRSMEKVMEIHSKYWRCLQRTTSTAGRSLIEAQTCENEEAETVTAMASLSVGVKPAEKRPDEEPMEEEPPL
Histone deacetylase 9, sequence (Q9UKV0 whole entry): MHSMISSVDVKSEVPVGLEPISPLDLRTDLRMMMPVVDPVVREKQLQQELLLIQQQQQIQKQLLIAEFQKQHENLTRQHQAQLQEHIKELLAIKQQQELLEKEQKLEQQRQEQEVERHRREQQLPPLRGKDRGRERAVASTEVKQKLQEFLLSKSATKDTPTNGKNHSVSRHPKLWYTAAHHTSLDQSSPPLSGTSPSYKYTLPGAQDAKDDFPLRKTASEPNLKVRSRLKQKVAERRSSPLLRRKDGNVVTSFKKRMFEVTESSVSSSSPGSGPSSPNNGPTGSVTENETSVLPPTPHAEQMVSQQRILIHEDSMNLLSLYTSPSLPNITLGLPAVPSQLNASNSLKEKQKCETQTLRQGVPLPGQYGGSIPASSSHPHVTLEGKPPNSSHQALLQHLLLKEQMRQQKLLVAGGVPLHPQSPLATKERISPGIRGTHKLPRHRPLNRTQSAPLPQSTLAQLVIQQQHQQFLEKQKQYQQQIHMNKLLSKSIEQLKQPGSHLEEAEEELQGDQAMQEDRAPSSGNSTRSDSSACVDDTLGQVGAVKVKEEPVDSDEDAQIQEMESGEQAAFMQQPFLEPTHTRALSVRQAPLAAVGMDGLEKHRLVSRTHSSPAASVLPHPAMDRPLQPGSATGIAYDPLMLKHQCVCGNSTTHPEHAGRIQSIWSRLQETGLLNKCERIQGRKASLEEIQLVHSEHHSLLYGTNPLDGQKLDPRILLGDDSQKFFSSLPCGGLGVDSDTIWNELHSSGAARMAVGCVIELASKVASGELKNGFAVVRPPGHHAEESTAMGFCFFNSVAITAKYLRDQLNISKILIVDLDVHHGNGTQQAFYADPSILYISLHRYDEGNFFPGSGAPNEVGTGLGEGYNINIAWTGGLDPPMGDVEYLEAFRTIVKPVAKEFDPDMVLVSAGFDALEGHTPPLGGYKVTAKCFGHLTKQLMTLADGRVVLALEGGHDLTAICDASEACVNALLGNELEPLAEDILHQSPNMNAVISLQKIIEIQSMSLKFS
Histone deacetylase 5, sequence (Q9UQL6 whole entry, the tested form may be a part): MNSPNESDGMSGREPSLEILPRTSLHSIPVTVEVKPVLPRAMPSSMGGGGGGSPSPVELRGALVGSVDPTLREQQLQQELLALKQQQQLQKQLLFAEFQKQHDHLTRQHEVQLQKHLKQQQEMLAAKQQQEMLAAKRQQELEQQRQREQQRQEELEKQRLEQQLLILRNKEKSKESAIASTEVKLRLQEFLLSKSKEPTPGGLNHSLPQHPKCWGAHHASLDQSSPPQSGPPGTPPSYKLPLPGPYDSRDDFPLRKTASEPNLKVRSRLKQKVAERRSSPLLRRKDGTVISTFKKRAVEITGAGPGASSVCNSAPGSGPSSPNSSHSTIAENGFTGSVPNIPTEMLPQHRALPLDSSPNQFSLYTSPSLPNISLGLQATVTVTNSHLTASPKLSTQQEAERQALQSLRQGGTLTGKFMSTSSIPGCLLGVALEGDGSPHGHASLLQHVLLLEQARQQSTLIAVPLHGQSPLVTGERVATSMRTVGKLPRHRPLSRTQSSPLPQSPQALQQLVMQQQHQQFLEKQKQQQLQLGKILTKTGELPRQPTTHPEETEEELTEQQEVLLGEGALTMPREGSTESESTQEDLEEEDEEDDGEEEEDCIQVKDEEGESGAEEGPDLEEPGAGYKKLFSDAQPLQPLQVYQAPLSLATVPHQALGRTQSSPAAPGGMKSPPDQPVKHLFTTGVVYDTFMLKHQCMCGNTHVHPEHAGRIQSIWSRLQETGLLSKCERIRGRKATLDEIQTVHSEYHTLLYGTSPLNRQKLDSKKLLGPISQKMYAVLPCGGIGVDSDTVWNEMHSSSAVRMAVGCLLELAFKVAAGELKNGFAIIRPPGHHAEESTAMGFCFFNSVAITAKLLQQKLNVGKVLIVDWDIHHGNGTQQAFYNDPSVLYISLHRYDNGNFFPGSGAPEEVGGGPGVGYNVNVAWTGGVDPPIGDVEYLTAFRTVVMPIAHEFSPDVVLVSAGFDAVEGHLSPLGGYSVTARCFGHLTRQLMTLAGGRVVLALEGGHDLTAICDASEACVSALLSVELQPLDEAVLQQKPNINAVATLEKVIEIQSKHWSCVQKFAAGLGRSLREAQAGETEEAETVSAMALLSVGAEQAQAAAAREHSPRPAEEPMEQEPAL

| Compound | MEC (NIH3T3 [1]) | IC50 (Histone deacetylase 1) | IC50 (NIH3T3 [2]) | IC50 [3] | IC50 (Histone deacetylase 8) | other results |
| --- | --- | --- | --- | --- | --- | --- |
| O=C(NO)c1cccc(Cn2c(=O)[nH]c(=O)c3cccc(Cl)c32)c1 | 10 µM | > 30 µM | > 40 µM | 5.95 µM | 0.966 µM |  |
| O=C(NO)c1ccc(Cn2c(=O)[nH]c(=O)c3cc(Br)ccc32)cc1 | 6.05 µM | 4.28 µM | 757 µM | 0.018 µM | 0.371 µM |  |
| COc1ccc2c(c1)[C@]13CCCC[C@@H]1[C@H](C2)N(C)CC3 [DEXTROMETHORPHAN] |  |  |  |  |  | half-life at 1 h, 200 µM (in vitro [4]; liver microsomes): 0.582 h; remaining at 1 h, 200 µM ([5]; liver microsomes): 30.4%; CLint scaled at 1 h, 200 µM (in vitro [6]; liver microsomes): 14.3 mL/min/kg |
| O=C(CCn1c(=O)n(CCc2ccccc2)c(=O)c2ccccc21)NO | 1.14 µM | > 10 µM | 7.14 µM | 0.798 µM | 0.454 µM |  |
| O=C(NO)c1ccc(Cn2c(=O)n(CCc3ccccc3)c(=O)c3ccc(C(F)(F)F)cc32)cc1 | 1.24 µM |  | 4.23 µM |  |  |  |
| O=C(NO)c1ccc(/C=C/c2nc3ccccc3c(=O)[nH]2)cc1 | 2.27 µM | 16.2 µM | 5.02 µM | 0.028 µM | 0.325 µM | Papp A→B at 1.5 h, 10 µM (in vitro [7]): 0.3 ×10⁻⁶ cm/s; half-life at 1 h, 200 µM (in vitro [4]; liver microsomes): 1.26 h; MEC [8]: 10 µM; remaining at 1 h, 200 µM ([5]; liver microsomes): 58.1%; IC50 [9]: > 40 µM; CLint scaled at 1 h, 200 µM (in vitro [6]; liver microsomes): 10.5 mL/min/kg |
| O=C(NO)c1ccc(Cn2c(=O)n(CCc3ccccc3O)c(=O)c3ccccc32)cc1 | 4.94 µM |  | 9.95 µM |  |  |  |
| O=C(NO)c1ccc(Cn2c(=O)[nH]c(=O)c3ccc(C(F)(F)F)cc32)cc1 | 4.72 µM | 5.18 µM | 16 µM | 0.058 µM | 0.302 µM |  |
| O=C(NO)c1ccc(Cn2c(=O)[nH]c(=O)c3ccc(F)cc32)cc1 | 2.7 µM | 0.423 µM | 15.3 µM | 0.0016 µM | 0.154 µM |  |
| O=C(NO)c1ccc(-c2nc3ccccc3c(=O)[nH]2)cc1 | 10 µM | > 30 µM | > 40 µM | 0.317 µM | 1.62 µM | MEC [8]: 5 µM; IC50 [9]: > 40 µM |
| O=C(NO)c1ccc(Cn2c(=O)n(CCc3ccccc3)c(=O)c3cc(Cl)ccc32)cc1 | 0.81 µM |  | 3.79 µM |  |  |  |
| O=C(NO)c1ccc(Cn2c(=O)[nH]c(=O)c3cccc(Cl)c32)cc1 | 9.7 µM | 0.19 µM | 18.6 µM | 0.01 µM | 0.137 µM | Papp A→B at 1.5 h, 10 µM (in vitro [7]): 1.4 ×10⁻⁶ cm/s; IC50 (Histone deacetylase 4): 0.516 µM; IC50 (Histone deacetylase 9): 0.431 µM; half-life at 1 h, 200 µM (in vitro [4]; liver microsomes): > 3.11 h; IC50 (Histone deacetylase 5): 0.211 µM; MEC [8]: 10 µM; remaining at 1 h, 200 µM ([5]; liver microsomes): 100%; IC50 (Histone deacetylase 3): 0.302 µM; IC50 [9]: 8.82 µM; CLint scaled at 1 h, 200 µM (in vitro [6]; liver microsomes): < 6.1 mL/min/kg; IC50 (Histone deacetylase 2): 0.378 µM; IC50 (Histone deacetylase 11): 0.812 µM |
| O=C(CCn1c(=O)n(Cc2ccccc2)c(=O)c2ccc(Cl)cc21)NO | 2.9 µM | > 10 µM | 9.12 µM | 0.047 µM |  |  |
| CCc1nc2ccc(/C=C/CC(=O)NO)cc2c(=O)n1-c1ccccc1 | 10 µM | 15.9 µM | > 40 µM | 0.285 µM | 3.69 µM |  |
| O=C(NO)c1ccc(Cn2c(=O)n(CCc3ccccc3)c(=O)c3ccccc32)c(F)c1 | 0.73 µM | 14.5 µM | 10.1 µM | 0.108 µM | 0.255 µM |  |
| CCc1nc2c(Cc3ccc(C(=O)NO)cc3)cccc2c(=O)n1CCc1ccccc1 | 0.4 µM |  | 338 µM |  |  |  |
| O=C(CS)Nc1ccc(Cn2c(=O)[nH]c(=O)c3cccc(Cl)c32)cc1 |  |  |  | 0.0053 µM |  |  |
| Cn1c(CCC(=O)NO)nc2ccccc2c1=O |  | > 30 µM |  | 22 µM | 10.4 µM |  |
| Cc1nc2ccc(/C=C/CC(=O)NO)cc2c(=O)n1-c1ccccc1 | 10 µM | 17.3 µM | > 40 µM | 0.168 µM | 3.73 µM | half-life at 1 h, 200 µM (in vitro [4]; microsomes): > 3.11 h; MEC [8]: 10 µM; remaining at 1 h, 200 µM ([5]; microsomes): 84.3%; IC50 [9]: > 40 µM; CLint scaled at 1 h, 200 µM (in vitro [6]; microsomes): < 6.1 mL/min/kg |
| O=C(NO)c1ccc(Cn2c(=O)[nH]c(=O)c3cc(F)ccc32)cc1 |  | 1.27 µM | 4.76 µM | 0.006 µM | 0.222 µM |  |
| Cc1nc2cc(/C=C/C(=O)NO)ccc2c(=O)n1-c1ccccc1 | 20 µM |  | > 40 µM | 0.062 µM | 1.55 µM | IC50 (Histone deacetylase 4): 30 µM; IC50 (Histone deacetylase 9): 30 µM; half-life at 1 h, 200 µM (in vitro [4]; microsomes): > 3.11 h; IC50 (Histone deacetylase 5): 8.41 µM; MEC [8]: 10 µM; remaining at 1 h, 200 µM ([5]; microsomes): 89.6%; IC50 (Histone deacetylase 3): 1.59 µM; IC50 [9]: > 40 µM; CLint scaled at 1 h, 200 µM (in vitro [6]; microsomes): < 6.1 mL/min/kg; IC50 (Histone deacetylase 2): 7.38 µM; IC50 (Histone deacetylase 11): 4.7 µM |
| COc1ccccc1CCn1c(=O)c2ccccc2n(Cc2ccc(C(=O)NO)cc2)c1=O |  |  | 9.55 µM |  |  |  |
| O=C(NO)c1ccc(Cn2c(=O)n(CCc3ccccc3)c(=O)c3ccccc32)cc1 | 2.88 µM | > 10 µM | 5.1 µM |  |  |  |
| O=C(NO)c1ccc(Cn2c(=O)[nH]c(=O)c3c(Cl)cccc32)cc1 | 12 µM | 3.32 µM | 23.3 µM | 0.013 µM | 0.281 µM |  |
| N#Cc1ccc2c(=O)n(CCc3ccccc3)c(=O)n(Cc3ccc(C(=O)NO)cc3)c2c1 | 4.5 µM |  | 735 µM |  | 0.13 µM |  |
